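In this assay, cells in 96-well plates receive the compound at five concentrations for 48 hours. Endpoints are linearly interpolated between the surrounding concentrations. Abbreviation: GI50, concentration required for 50% inhibition of growth.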 Activity calls are given as the source filed them. No stated cut-off is given here; in the data, active = GI50 up to about 1.1 µM and inactive = higher.
Assays:
Test in all cases: NCI anticancer screen, dose series, 48 h
HCT-116 = system: HCT-116
SK-OV-3 = system: SK-OV-3
UACC-257 = system: UACC-257
SNB-19 = system: SNB-19
Malme-3M = system: Malme-3M
A549 = system: A549
SW-620 = system: SW-620
SR = system: SR
SN12C = system: SN12C
U-251 = system: U-251
DMS-114 = system: DMS-114
NCI-H522 = system: NCI-H522
LOX IMVI = system: LOX IMVI
HCC 2998 = system: HCC 2998
ACHN = system: ACHN
CAKI-1 = system: CAKI-1
DU-145 = system: DU-145
MDA-MB-435 = system: MDA-MB-435
NCI/ADR-RES = system: NCI/ADR-RES
BT-549 = system: BT-549

Row | Structure (SMILES) | GI50 (HCT-116) | GI50 (SK-OV-3) | GI50 (UACC-257) | GI50 (SNB-19) | GI50 (Malme-3M) | GI50 (A549) | GI50 (SW-620) | GI50 (SR) | GI50 (SN12C) | GI50 (U-251) | GI50 (DMS-114) | GI50 (NCI-H522) | GI50 (LOX IMVI) | GI50 (HCC 2998) | GI50 (ACHN) | GI50 (CAKI-1) | GI50 (DU-145) | GI50 (MDA-MB-435) | GI50 (NCI/ADR-RES) | GI50 (BT-549)
1 | CC1=C2CC[C@@]3(C)C(=CCC3O)C2(C)CCC1=O (stereo partly drawn) | > 100 µM (inactive) | > 100 µM (inactive) | > 100 µM (inactive) | > 100 µM (inactive) | > 100 µM (inactive) | > 100 µM (inactive) | > 100 µM (inactive) | > 100 µM (inactive) | > 100 µM (inactive) | > 100 µM (inactive) | > 100 µM (inactive) | > 100 µM (inactive) | > 100 µM (inactive) | > 100 µM (inactive) | > 100 µM (inactive) | > 100 µM (inactive) |  |  |  | 
2 | O=C1C=C(N2CCCC2)C=C(N2CCCC2)C1 | > 100 µM (inactive) | > 100 µM (inactive) | > 100 µM (inactive) | > 100 µM (inactive) | > 100 µM (inactive) | > 100 µM (inactive) | > 100 µM (inactive) | > 100 µM (inactive) |  | > 100 µM (inactive) | 79.6 µM (inactive) | > 100 µM (inactive) | > 100 µM (inactive) | > 100 µM (inactive) | > 100 µM (inactive) | > 100 µM (inactive) |  |  |  | 
3 | Cc1ccc(S(=O)(=O)C2=c3nc4ccccc4cc3=C3C(=O)c4ccccc4C(=O)C32)cc1 (stereo not drawn) | > 100 µM (inactive) | 0.394 µM (active) | > 100 µM (inactive) | > 100 µM (inactive) | > 100 µM (inactive) | > 100 µM (inactive) | > 100 µM (inactive) | > 100 µM (inactive) | > 100 µM (inactive) | > 100 µM (inactive) | > 100 µM (inactive) | > 100 µM (inactive) | > 100 µM (inactive) | > 100 µM (inactive) | > 100 µM (inactive) | > 100 µM (inactive) |  |  |  | 
4 | O=c1c2ccccc2n2cnc3ccc(NCCNCCO)c1c32 | 0.798 µM (active) | 2.99 µM (inactive) | 3.37 µM (inactive) | 3.78 µM (inactive) | 2.36 µM (inactive) | 1.05 µM (active) | 0.589 µM (active) | 0.467 µM (active) | 1.51 µM (inactive) | 2.1 µM (inactive) | 2.04 µM (inactive) | 1.49 µM (inactive) | 1.11 µM (active) | 1.77 µM (inactive) | 0.836 µM (active) | 2.43 µM (inactive) | 0.384 µM (active) | 1.52 µM (inactive) | 2.81 µM (inactive) | 3.66 µM (inactive)
5 | CCOC(=O)C1=C(O)C(=O)c2ccoc2C1=O | > 100 µM (inactive) | > 100 µM (inactive) | > 100 µM (inactive) | > 100 µM (inactive) | > 100 µM (inactive) | > 100 µM (inactive) | > 100 µM (inactive) | > 100 µM (inactive) | > 100 µM (inactive) | > 100 µM (inactive) | > 100 µM (inactive) | > 100 µM (inactive) | > 100 µM (inactive) | > 100 µM (inactive) | > 100 µM (inactive) | > 100 µM (inactive) |  |  |  | 
6 | C[N+](C)(C)CC(=O)N/N=c1\cc(C(=O)Nc2ccc(N=O)cc2C#N)oc2cc(O)ccc12 | > 100 µM (inactive) | > 100 µM (inactive) | > 100 µM (inactive) | > 100 µM (inactive) | > 100 µM (inactive) | > 100 µM (inactive) | > 100 µM (inactive) | > 100 µM (inactive) | > 100 µM (inactive) | > 100 µM (inactive) | > 100 µM (inactive) | > 100 µM (inactive) | > 100 µM (inactive) | > 100 µM (inactive) | > 100 µM (inactive) | > 100 µM (inactive) |  |  |  | 
7 | C=C(CN(C)C)C(=O)c1ccc(OC2OC(COC(C)=O)C(OC(C)=O)C(OC(C)=O)C2OC(C)=O)cc1 (stereo not drawn) | 2.25 µM (inactive) | 19.4 µM (inactive) | 2.34 µM (inactive) | 19.8 µM (inactive) | 1.96 µM (inactive) | 21.2 µM (inactive) | 0.678 µM (active) | 0.975 µM (active) | 9.98 µM (inactive) | 15.8 µM (inactive) | 5.9 µM (inactive) | 0.447 µM (active) | 3.35 µM (inactive) | 18.1 µM (inactive) | 1.62 µM (inactive) | 1.59 µM (inactive) | 17.5 µM (inactive) | 6.18 µM (inactive) |  | 2.61 µM (inactive)
